From patent publication US11938127B2, “Methods and compositions relating to steroid hormone receptor-dependent proliferative disorders” (Wayne State University, priority 2021, dated 2024)
Read-outs that look alike come from different tables or passages of the source.

How the values were obtained:
binding of AR to ELK1 = binding of AR to ELK1 (Homo sapiens (Human), UniProt P10275); assay: BRET assay for inhibition of in situ binding of AR to ELK1 in HEK293T cells; format: cell-based; conditions: HEK-293T, read-out: inhibition of BRET signal for binding of AR to ELK1
Description: (§1) HEK293T cells were transfected with Rluc-AR alone, and alongside Turbo-Elk at a 4:1 ratio of ELK1:AR using Mirus LT1 reagent. The 4:1 ratio was determined to be the optimal ratio for the inhibition assay after testing different ratios of Turbo-Elk:Rluc-AR. 24 hours later, cells were treated with DMSO (vehicle control) or KCI838 (0.4 uM and 10 uM) and left for 24 hours. They were then trypsinized and seeded in 96 well white-bottomed plates at 100,000 per well (in quadriplicate) in media lacking phenol red (with DMSO or drug as required), left for 2 hours to settle, and then treated with 25 uM coelenterazine and luminescence read at 535 and 635 nm on a Clariostar instrument. BRET readings were calculated as 635/535 ratio minus 635/535 ratio for Rluc-AR only transfected controls. Cell lysates were probed by western blot for AR or ELK1, probing for GAPDH as the loading control. Cell viability in the presence of KCI838 was ensured by treating HEK293 cells for an extended period (3 days) with the compound or vehicle control and measuring viability using trypan blue staining.
HEK293T cells were transfected with Rluc-AR alone, and alongside Turbo-Elk. 24 hours later, cells were treated with KCI838 at the indicated doses. The following day, the cells were reseeded and allowed to settle for two hours before the BRET assay was performed. […]

CYP1A2 [1] = assay: Hepatic enzyme induction (mRNA) in primary human hepatocytes, CYP1A2; format: in vitro ADME; conditions: 72 hours
Description: (§2) Total RNA from cells was isolated using the PureLink RNA Mini Kit (Invitrogen, ThermoFisher Scientific) according to the manufacturer's protocol. Reverse transcription was performed using 30 ng of total RNA and the High Capacity cDNA Reverse Transcription kit (Applied Biosystems, ThermoFisher Scientific) according to the vendor's protocol. cDNA was measured by quantitative real time PCR using the StepOnePlus Real-Time PCR System (Applied Biosystems, Invitrogen) and TaqMan Fast Universal PCR Master Mix (Applied Biosystems, ThermoFisher Scientific). All primers and TaqMan probes were purchased from the Applied Biosystems inventory (ThermoFisher Scientific). All samples were measured in triplicate and normalized to the values for GAPDH.
(§3) Primary human hepatocytes used were the “Cryo Human Hepatocytes” from Gibco. 24 hours prior to treatment, cells were plated at 350,000 cells/well (700,000 cells/mL) in the following media: Williams E medium (WEM, A1217601), 2.5 mL FBS, 5 μL, 10 mM dexamethasone (from Gibco Thawing/Plating Supplement Pack, CM3000), 1.8 mL thawing/plating cocktail (from Gibco Thawing/Plating Supplement Pack, CM3000). […] The mRNAs for the following hepatic enzymes were quantified as described above. […]

22Rv1-Lenti vector cells = assay: Colony formation in control 22Rv1 cells transduced with lentiviral vector alone; format: cell-based; conditions: control 22Rv1 cells (vector), with DHT
Description: (§4) 22Rv1 cells were plated in triplicate at a density of 2000 cells/well in 6-well plates in 48-hour conditioned medium (phenol-red free RPMI1640 10% FBS, 1% penicillin/streptomycin, 1% L-glutamine) obtained from monolayer cultures of the same cells, as previously described. 48 h after plating, the cells were treated with various concentrations of the test compounds in the same media. The test compounds and media were replenished every 48 hours until colonies developed in the control untreated wells (in 10 days). The colonies were then stained with crystal violet and counted.
(§5) AR expressing lentiviral expression plasmid pCDH-CMV-MCS-EF1-puro (System BioSciences) or the plasmid vector alone (control), was packaged in 293FT cells. Virus-containing media was harvested at 48 and 72 hours after packaging and stored at −80° C. 48 hours before infection, 22Rv1 cells were plated at 30-50% confluence in 10 cm dishes in phenol-red free medium supplemented with 10% heat-inactivated FBS and 2 mM L-glutamine. On the day of infection, cells were infected with the lentivirus with polybrene (8 μg/mL) for a duration of 5 hours. The virus was then replaced with fresh medium containing 10% FBS and 100 units/mL penicillin, 100 μg/mL streptomycin, and 2 mM L-glutamine mixture. […]

HEK293 cells = assay: Viability of HEK293 cells (trypan blue); format: cell-based; conditions: 3 days treatment, 0.4 μM or 10 μM
Description: as §1
To ensure that KCI838 was not toxic to the HEK293 cells, viability of the cells was tested following extended (3 days) treatment with, vehicle, 0.4 μM, or 10 μM KCI838. Viable cells were counted after three days and the data was plotted as percent of untreated cells.

22Rv1-Lenti AR cells = assay: Colony formation in 22Rv1 cells overexpressing AR; format: cell-based; conditions: AR overexpressing 22Rv1 cells
Description: as §4, §5

UGT1A4 = assay: Hepatic enzyme induction (mRNA) in primary human hepatocytes, UGT1A4; format: in vitro ADME; conditions: 72 hours, doses of 0.5 uM and 5 uM
Description: as §2, §3

[2] = Repeated intraperitoneal administration to mice (toxicity, body weight); format: in vivo, BalbC mice; conditions: for initial weight loss: male BalbC mice, intraperitoneal
Description: KCI838 was repeatedly administered by intraperitoneal injection to two groups of 6-week old male BalbC mice at doses of 200 mg/Kg and 100 mg/Kg.

22Rv1 cells [3] = assay: Colony formation assay in 22Rv1 cells; format: cell-based; conditions: 22Rv1 CRPC cells
Description: as §4
The ability of KCI837 to inhibit colony formation in castration and enzalutamide resistant prostate cancer cells was tested. 22Rv1 cells were seeded in triplicate six well plates in phenol red-free conditioned media. 48 hours later, treatment with KCI837 at the indicated doses was initiated. KCI837 was replenished every 48 hours. Seven days later, colonies were fixed and stained with crystal violet. Colony counts are plotted.

CYP1A2 [4] = molecular target: CYP1A2 (Homo sapiens (Human), UniProt P05177); assay: CYP1A2 inhibition assay in pooled human liver microsomes; format: in vitro ADME; conditions: standard enzymatic activity assay
Description: The quenched samples were incubated at 4° C. for 10 min and centrifuged at 4° C. for 10 min.

UGT1A1 [5] = assay: Hepatic enzyme induction (mRNA) in primary human hepatocytes, UGT1A1; format: in vitro ADME; conditions: 72 hours, doses of 0.5 uM and 5 uM
Description: as §2, §3

UGT1A1 [6] = molecular target: UGT1A1 (Homo sapiens (Human), UniProt P22309); assay: UGT1A1 inhibition assay with human UGT1A1-expressed Supersomes; format: in vitro ADME
Description: KCI838 was incubated at seven increasing concentrations with human UGT1A1-expressed Supersomes™ (0.25 mg/mL), alamethicin (25 μg/mL) and UDPGA (5 mM) in the presence of the probe substrate estradiol (10 μM) for 30 min at 37° C. The UGT1A1 inhibitor, atazanavir, was screened alongside the test compounds as a positive control. The reactions were terminated by quenching with one volume of methanol containing an analytical internal standard. The samples will be centrifuged at 5000 rpm for 10 min at 4° C. The metabolites were monitored by LC-MS/MS and a decrease in the formation of the metabolite compared to the vehicle control was used to calculate an IC50 value (test compound concentration which produces 50% inhibition).

22Rv1 cells [7] = assay: Cell viability (MTT) assay, monolayer growth of 22Rv1 cells; format: cell-based; conditions: enzalutamide-resistant 22Rv1 CRPC monolayers; 2.5 uM, 5 uM and 10 uM
Description: (§6) Cells from monolayer cultures were trypsinized and seeded in 96-well plates coated with poly(d-lysine) at a density of 4000 cells per well (for 22Rv1 cells and LNCaP cells) or 5000 cells per well (for VCaP cells). The media used were the same as the growth media described above for each cell line. The plates were incubated at 37° C. in 5% CO2. Twenty-four hours later, the cells were treated with the indicated compound or dimethylsulfoxide (vehicle). The culture medium was replaced with fresh media containing vehicle or the appropriate concentration of compound at the end of 48 hours during the time course of the assay. Cell viability was determined on Day 0 and at the various time points using the standard 3-(4,5-dimethylthiazol-2-yl)-2,5-diphenyltetrazolium bromide (MTT) assay. The assays ware conducted in replicates of six wells per condition and values plotted as percent of the Day 0 values.

CWR22Rv1-AR-EK cells = assay: MTT growth assay in CWR22Rv1-AR-EK cells; format: cell-based; conditions: three or four days
Description: This model cell line thus mimics aggressively growing advanced prostate cancer tumor cells that are insensitive to current treatments such as testosterone suppression and androgen antagonists that cannot affect AR-Vs. Since KCI838 disrupts interaction of ELK1 with wtAR as well as AR-Vs, the effect of KCI838 on the growth of CWR22Rv1-AR-EK cells was tested. For this test, the cells were seeded in phenol red-free growth media. 24 hours later, the cells were treated with KCI838, FIG. 12A, or enzalutamide, FIG. 12B, at the indicated concentrations. Cells were grown for three or four days with replenishment of the drug at 48 hours. Cell viability was measured using the MTT assay.

VCaP cells = assay: Cell viability (MTT) assay, monolayer growth of VCaP cells; format: cell-based; conditions: dose range 2.5 uM-10 uM; dose-dependent
Description: as §6

UGT1A1 (Homo sapiens (Human), UniProt P22309), sequence (P22309 26-533): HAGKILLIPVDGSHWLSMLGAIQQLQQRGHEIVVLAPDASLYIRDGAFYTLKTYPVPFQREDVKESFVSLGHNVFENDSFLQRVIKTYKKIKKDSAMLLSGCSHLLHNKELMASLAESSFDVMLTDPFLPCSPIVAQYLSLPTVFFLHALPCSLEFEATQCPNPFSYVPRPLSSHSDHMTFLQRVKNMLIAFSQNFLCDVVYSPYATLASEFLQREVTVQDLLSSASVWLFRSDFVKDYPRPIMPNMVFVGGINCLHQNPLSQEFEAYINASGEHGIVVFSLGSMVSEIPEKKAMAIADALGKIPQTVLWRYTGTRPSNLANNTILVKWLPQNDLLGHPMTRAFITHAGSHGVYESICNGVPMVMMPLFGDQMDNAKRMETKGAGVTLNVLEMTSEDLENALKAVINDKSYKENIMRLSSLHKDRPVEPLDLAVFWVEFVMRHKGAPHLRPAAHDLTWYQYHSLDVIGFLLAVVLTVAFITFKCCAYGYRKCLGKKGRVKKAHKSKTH
binding of AR to ELK1, sequence (P10275 whole entry): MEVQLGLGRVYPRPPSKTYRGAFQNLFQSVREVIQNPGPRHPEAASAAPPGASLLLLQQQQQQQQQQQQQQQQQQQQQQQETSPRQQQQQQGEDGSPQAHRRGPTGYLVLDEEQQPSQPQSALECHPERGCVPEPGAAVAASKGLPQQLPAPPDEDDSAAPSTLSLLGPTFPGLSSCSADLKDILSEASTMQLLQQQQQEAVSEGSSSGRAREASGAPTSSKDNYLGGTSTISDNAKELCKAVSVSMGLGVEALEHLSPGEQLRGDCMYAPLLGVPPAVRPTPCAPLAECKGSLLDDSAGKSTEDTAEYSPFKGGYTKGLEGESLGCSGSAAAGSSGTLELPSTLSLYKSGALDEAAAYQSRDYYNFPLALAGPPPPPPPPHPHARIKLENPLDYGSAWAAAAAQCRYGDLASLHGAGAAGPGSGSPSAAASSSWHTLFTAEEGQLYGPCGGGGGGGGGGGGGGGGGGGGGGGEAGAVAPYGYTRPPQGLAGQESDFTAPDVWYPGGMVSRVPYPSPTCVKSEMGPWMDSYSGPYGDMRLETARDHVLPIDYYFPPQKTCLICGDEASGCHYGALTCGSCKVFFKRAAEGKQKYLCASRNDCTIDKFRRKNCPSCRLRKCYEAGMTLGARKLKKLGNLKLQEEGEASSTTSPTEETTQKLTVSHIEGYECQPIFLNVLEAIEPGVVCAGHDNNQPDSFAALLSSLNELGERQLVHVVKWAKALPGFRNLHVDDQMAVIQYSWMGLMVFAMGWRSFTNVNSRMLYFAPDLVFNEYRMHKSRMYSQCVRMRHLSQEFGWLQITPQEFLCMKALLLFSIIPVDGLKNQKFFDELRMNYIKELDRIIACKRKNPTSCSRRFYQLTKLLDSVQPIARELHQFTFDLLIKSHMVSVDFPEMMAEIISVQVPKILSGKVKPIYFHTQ
CYP1A2 (Homo sapiens (Human), UniProt P05177), sequence (P05177 whole entry): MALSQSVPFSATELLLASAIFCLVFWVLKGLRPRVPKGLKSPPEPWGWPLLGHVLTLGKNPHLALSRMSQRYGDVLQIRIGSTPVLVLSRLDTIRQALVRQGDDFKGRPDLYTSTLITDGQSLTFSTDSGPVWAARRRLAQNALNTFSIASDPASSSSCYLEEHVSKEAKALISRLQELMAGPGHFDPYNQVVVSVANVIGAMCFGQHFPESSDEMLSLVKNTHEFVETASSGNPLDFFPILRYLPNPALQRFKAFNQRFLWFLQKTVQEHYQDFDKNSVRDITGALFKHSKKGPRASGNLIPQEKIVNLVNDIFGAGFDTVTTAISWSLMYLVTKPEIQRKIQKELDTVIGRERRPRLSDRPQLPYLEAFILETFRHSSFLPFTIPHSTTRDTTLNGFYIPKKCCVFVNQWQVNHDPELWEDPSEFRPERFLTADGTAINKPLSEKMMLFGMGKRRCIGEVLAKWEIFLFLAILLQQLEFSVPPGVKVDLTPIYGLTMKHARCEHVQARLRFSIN

O=c1cc(-c2cccc(O)c2)n(CC(F)(F)F)c2cccc(O)c12 [KCI838]
inhibition at 0.4 µM (binding of AR to ELK1; 0.4 μM): 60% | inhibition at 10 µM (binding of AR to ELK1; 10 μM): 95% | induction of CYP1A2 (CYP1A2 [1]; 0.5 uM dose): unable to induce CYP1A2 | induction of CYP1A2 (CYP1A2 [1]; higher doses than 0.5 uM): induce the enzyme | IC50 (22Rv1-Lenti vector cells; Homo sapiens, read-out: IC50 for inhibition of colony formation): 68 nM | IC75 for inhibition of colony formation (22Rv1-Lenti vector cells): 121 nM | viability of HEK293 cells (HEK293 cells): virtually completely viable | inhibition of colony formation at 68 nM (22Rv1-Lenti AR cells; 68 nM): no inhibition | IC50 (22Rv1-Lenti AR cells; Homo sapiens, with DHT, read-out: IC50 for inhibition of colony formation): 132 nM | induction of UGT1A4 (UGT1A4): not induced significantly | signs of toxicity ([2]; 6-week old male BalbC mice, repeated intraperitoneal injection, 200 mg/Kg and 100 mg/Kg): no apparent signs of toxicity | initial weight loss ([2]; 100 mg/Kg): ~2% | initial weight loss ([2]; 200 mg/Kg): ~4% | IC50 (22Rv1 cells [3]; Homo sapiens, read-out: IC50 of colony counts): ~60 nM | IC50 (CYP1A2 [4]): 2920 nM | induction of UGT1A1 (UGT1A1 [5]): not induced significantly | IC50 (UGT1A1 [6]; standard enzymatic activity assay, read-out: IC50 value for UGT1A1): 35.9 µM

CNC(=O)c1ccc(N2C(=S)N(c3ccc(C#N)c(C(F)(F)F)c3)C(=O)C2(C)C)cc1F [enzalutamide]
time course of growth inhibition (22Rv1 cells [7]): did not inhibit cell growth | growth of CWR22Rv1-AR-EK cells (CWR22Rv1-AR-EK cells): insensitive | effect on colony formation (22Rv1 cells [3]; nanomolar dose range): no effect on colony formation | monolayer growth of VCaP cells (VCaP cells): inhibited monolayer growth

COC(=O)N[C@H](C(=O)N[C@@H](Cc1ccccc1)[C@@H](O)CN(Cc1ccc(-c2ccccn2)cc1)NC(=O)[C@@H](NC(=O)OC)C(C)(C)C)C(C)(C)C [atazanavir, reference compound]
IC50 (UGT1A1 [6]; human UGT1A1 Supersomes, probe substrate estradiol (10 μM), 30 min at 37° C., read-out: IC50): 0.792 µM
